US20080009418A1, “Selective Inhibitors” (Alchemia LTD., priority 2004, published 2008)

Legend:
[1] = molecular target: T1, Human δ-opioid (DOP) (Homo sapiens, UniProt P41143); assay: Radioligand binding, human δ-opioid (DOP) membranes, FlashPlate, [3H]-Bremazocine; settings: compound at 10 μM
T1 construct: purchased Perkin Elmer Biosignal
How it was run: (§1)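 Cloned human receptor membranes were coated onto FlashPlate wells and incubated with radioligand and compound (added from a 0.5 mM DMSO daughter plate) for 1 hour at room temperature in the dark. Scintillation counting gave percent inhibition, with DMSO defining total and reference ligand defining non-specific binding.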

[2] = molecular target: T2, Human κ-Opioid (KOP) (Homo sapiens, UniProt P41145); assay: Radioligand binding, human κ-opioid (KOP) membranes, filtration, [3H]-Diprenorphine; settings: compound at 10 μM
T2 construct: purchased Perkin Elmer Biosignal
How it was run: (§2)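 Filtration binding on cloned human receptor membranes (1 Unit/well), [125I]-Substance P for NK1 and [3H]-Diprenorphine for KOP, 1 h at room temperature. Filters PEI-presoaked, washed with cold 50 mM Tris-HCl pH 7.4, counted by scintillation; percent inhibition calculated, reference ligand defining non-specific binding.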

[3] = molecular target: T3, Human Melanocortin (MC3) (Homo sapiens, UniProt P41968); assay: Radioligand binding, human melanocortin MC3 membranes, FlashPlate, [125I]-NDP-αMSH; settings: compound at 10 μM
T3 construct: purchased Perkin Elmer Biosignal
How it was run: as §1

[4] = molecular target: T4, Human Melanocortin (MC4) (Homo sapiens, UniProt P32245); assay: Radioligand binding, human melanocortin MC4 membranes, FlashPlate, [125I]-NDP-αMSH; settings: compound at 10 μM
T4 construct: purchased Perkin Elmer Biosignal
How it was run: as §1

[5] = molecular target: T5, Human melanocortin (MC5) (Homo sapiens, UniProt P33032); assay: Radioligand binding, human melanocortin MC5 membranes, FlashPlate, [125I]-NDP-αMSH; settings: compound at 10 μM
T5 construct: purchased Perkin Elmer Biosignal
How it was run: as §1

[6] = molecular target: T6, Human melanin-concentrating hormone (MCH1) (Homo sapiens, UniProt Q99705); assay: Radioligand binding, human melanin-concentrating hormone MCH1 membranes, FlashPlate, [125I]-S36057; settings: compound at 10 μM; for A6: inhibition of radioligand binding, human melanin-concentrating hormone (MCH1): [125I]-S36057
T6 construct: purchased Perkin Elmer Biosignal
How it was run: as §1

[7] = molecular target: T7, Human μ-opioid (MOP) (Homo sapiens, UniProt P35372); assay: Radioligand binding, human μ-opioid (MOP) membranes, FlashPlate, [3H]-Naloxone; settings: compound at 10 μM
T7 construct: purchased Perkin Elmer Biosignal
How it was run: as §1

[8] = molecular target: T8, Human neurokinin (NK1) (Homo sapiens, UniProt P25103); assay: Radioligand binding, human neurokinin NK1 membranes, filtration, [125I]-Substance P; settings: compound at 10 μM
T8 construct: purchased Perkin Elmer Biosignal
How it was run: as §2

[9] = molecular target: T9, Human neuropeptide Y (NPY-Y1) (Homo sapiens, UniProt P25929); assay: Radioligand binding, human neuropeptide Y NPY-Y1 membranes, FlashPlate, [125I]-PYY; settings: compound at 10 μM
T9 construct: purchased Perkin Elmer Biosignal
T9 sequence (P25929 1-384): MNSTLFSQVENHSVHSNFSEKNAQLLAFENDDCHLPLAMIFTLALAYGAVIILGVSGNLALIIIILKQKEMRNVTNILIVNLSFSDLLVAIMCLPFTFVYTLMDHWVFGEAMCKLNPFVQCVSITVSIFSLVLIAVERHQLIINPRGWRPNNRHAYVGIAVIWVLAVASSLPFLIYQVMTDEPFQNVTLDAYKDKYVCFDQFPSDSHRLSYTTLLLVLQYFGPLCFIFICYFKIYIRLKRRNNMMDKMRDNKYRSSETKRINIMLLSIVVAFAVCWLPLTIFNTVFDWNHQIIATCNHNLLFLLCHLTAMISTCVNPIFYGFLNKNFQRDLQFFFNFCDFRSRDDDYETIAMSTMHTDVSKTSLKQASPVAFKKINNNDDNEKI
How it was run: as §1

[10] = molecular target: T10, Human opioid (ORL1) (Homo sapiens, UniProt P41146); assay: Radioligand binding, human opioid ORL1 membranes, FlashPlate, [125I]-Nociceptin; settings: compound at 10 μM
T10 construct: purchased Perkin Elmer Biosignal
How it was run: as §1

[11] = molecular target: T11, Mouse urotensin (mUR2) (Mus musculus, UniProt Q8VIH9); assay: Radioligand binding, mouse urotensin mUR2 membranes, FlashPlate, [125I]-Urotensin II; settings: compound at 10 μM
T11 construct: purchased Perkin Elmer Biosignal
T11 sequence (Q8VIH9 1-385): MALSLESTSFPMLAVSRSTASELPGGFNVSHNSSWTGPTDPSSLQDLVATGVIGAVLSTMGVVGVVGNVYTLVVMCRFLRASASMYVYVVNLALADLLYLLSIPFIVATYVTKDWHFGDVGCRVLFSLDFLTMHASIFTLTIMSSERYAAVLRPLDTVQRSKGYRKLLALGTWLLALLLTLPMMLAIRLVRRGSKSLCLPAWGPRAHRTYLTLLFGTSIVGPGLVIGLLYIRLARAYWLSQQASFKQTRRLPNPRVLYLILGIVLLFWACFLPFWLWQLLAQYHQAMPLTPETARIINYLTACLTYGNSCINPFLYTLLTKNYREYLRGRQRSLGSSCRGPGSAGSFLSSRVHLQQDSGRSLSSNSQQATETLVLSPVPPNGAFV
How it was run: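 Cloned mouse urotensin (mUR2) receptor membranes from Perkin Elmer Biosignal were immobilized in FlashPlate microplates using a proprietary coating. Each well got 19.5 μl buffer, then 0.5 μl of DMSO, reference ligand, or compound. Adding 5 μl of [125I]-Urotensin II, diluted to 5× final concentration in binding buffer, started binding. Plates were sealed with TopSeal-A and incubated 1 hour at room temperature in the dark. Wells were counted for 30 seconds each on a TopCount after a 60-second delay, and percentage inhibition was calculated.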

T3 sequence (P41968 whole entry): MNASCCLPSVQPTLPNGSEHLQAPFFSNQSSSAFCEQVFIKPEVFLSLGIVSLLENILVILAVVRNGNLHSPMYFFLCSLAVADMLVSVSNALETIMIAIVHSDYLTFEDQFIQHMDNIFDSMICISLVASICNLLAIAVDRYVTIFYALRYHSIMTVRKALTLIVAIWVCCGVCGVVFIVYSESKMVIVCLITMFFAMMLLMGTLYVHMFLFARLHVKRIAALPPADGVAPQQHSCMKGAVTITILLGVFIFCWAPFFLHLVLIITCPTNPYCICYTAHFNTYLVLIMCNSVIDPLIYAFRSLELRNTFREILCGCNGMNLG
T10 sequence (P41146 whole entry): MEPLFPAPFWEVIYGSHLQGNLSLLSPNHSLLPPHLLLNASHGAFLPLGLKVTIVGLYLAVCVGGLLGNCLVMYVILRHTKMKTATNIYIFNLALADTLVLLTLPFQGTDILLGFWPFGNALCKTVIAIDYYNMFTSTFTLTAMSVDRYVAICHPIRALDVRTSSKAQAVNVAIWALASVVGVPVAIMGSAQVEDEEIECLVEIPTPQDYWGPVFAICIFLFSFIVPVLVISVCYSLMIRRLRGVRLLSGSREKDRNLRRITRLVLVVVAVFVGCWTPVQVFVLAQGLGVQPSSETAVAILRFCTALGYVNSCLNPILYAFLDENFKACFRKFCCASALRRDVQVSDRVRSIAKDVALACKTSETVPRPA
T4 sequence (P32245 whole entry): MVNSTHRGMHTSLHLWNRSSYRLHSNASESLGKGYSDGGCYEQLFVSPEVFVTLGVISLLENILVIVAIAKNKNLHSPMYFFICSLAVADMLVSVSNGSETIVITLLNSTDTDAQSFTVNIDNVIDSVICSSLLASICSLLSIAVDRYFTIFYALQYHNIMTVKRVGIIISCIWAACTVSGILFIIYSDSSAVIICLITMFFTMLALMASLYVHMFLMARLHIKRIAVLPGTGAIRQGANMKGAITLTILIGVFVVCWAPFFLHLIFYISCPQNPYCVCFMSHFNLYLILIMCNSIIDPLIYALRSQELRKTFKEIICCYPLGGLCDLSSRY
T1 sequence (P41143 whole entry): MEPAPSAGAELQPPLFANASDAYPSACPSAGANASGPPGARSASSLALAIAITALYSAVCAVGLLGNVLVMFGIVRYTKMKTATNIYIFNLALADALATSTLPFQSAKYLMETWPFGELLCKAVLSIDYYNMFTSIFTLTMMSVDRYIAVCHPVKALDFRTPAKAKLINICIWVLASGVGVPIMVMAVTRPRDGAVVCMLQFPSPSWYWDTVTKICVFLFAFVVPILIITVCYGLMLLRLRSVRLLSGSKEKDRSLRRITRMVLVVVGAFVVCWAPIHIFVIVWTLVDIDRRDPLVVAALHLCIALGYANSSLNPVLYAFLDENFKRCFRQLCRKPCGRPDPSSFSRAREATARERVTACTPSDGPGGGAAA
T2 sequence (P41145 whole entry): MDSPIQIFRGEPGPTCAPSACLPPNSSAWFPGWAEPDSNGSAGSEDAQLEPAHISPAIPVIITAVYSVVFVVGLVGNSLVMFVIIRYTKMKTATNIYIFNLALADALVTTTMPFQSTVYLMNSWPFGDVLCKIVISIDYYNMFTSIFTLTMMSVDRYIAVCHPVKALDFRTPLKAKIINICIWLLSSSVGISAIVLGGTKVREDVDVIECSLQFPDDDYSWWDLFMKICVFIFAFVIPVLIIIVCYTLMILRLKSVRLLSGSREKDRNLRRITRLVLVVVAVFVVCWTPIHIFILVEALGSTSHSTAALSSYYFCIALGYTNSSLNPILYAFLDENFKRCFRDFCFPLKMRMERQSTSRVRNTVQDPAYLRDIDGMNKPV
T5 sequence (P33032 whole entry): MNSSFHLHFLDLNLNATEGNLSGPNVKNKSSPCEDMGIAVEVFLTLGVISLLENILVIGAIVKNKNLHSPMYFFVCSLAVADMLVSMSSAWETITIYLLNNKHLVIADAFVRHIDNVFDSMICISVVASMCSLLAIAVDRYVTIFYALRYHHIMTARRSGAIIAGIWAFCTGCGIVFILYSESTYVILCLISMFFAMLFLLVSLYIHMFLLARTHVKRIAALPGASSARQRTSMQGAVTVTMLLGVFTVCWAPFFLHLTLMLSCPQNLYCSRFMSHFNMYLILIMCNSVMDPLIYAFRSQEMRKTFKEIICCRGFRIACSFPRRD
T8 sequence (P25103 whole entry): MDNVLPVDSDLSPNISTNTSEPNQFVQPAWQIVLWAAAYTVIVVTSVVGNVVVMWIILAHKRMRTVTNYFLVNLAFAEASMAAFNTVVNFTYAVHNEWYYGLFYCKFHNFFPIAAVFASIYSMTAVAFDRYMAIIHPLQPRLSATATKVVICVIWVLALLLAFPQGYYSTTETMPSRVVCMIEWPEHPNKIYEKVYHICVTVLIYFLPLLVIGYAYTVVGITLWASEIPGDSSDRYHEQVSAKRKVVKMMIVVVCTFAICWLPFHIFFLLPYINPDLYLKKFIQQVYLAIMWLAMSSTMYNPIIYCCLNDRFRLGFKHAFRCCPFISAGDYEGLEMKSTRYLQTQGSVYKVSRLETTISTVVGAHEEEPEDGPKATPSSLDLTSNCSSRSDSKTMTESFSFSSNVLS
T7 sequence (P35372 whole entry): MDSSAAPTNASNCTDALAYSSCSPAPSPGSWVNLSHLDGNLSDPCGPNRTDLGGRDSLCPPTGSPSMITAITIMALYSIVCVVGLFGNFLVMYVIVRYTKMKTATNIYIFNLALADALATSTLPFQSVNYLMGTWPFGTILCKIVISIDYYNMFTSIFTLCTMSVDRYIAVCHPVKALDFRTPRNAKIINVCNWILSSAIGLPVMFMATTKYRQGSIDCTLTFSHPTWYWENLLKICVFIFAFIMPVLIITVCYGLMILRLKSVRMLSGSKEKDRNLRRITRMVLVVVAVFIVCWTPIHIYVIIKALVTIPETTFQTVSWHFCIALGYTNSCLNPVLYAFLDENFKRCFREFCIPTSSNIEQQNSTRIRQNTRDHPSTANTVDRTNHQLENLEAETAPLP
T6 sequence (Q99705 whole entry): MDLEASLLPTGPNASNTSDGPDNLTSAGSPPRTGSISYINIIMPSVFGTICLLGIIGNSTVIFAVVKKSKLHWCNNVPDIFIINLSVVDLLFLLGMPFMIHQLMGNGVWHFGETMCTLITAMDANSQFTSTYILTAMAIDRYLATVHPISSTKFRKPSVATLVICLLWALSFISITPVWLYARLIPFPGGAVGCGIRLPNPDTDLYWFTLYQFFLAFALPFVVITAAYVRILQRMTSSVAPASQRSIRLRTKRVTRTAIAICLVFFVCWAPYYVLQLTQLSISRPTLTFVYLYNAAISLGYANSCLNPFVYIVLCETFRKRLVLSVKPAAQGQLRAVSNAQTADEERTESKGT

Compound	A1: inhibition of radioligand binding, human δ-opioid (DOP) ([1]; [3H]-Bremazocine)	A2: inhibition of radioligand binding, human κ-opioid (KOP) ([2]; [3H]-Diprenorphine)	A3: inhibition of radioligand binding, human melanocortin (MC3) ([3]; [125I]-NDP-αMSH)	A4: inhibition of radioligand binding, human melanocortin (MC4) ([4]; [125I]-NDP-αMSH)	A5: inhibition of radioligand binding, human melanocortin (MC5) ([5]; [125I]-NDP-αMSH)	A6: inhibition of radioligand binding, human melanin-concentrating hormone (MCH1) [6]	A7: inhibition of radioligand binding, human μ-opioid (MOP) ([7]; [3H]-Naloxone)	A8: inhibition of radioligand binding, human neurokinin (NK1) ([8]; [125I]-Substance P)	A9: inhibition of radioligand binding, human neuropeptide Y (NPY-Y1) ([9]; [125I]-PYY)	A10: inhibition of radioligand binding, human opioid (ORL1) ([10]; [125I]-Nociceptin)	A11: inhibition of radioligand binding, mouse urotensin (mUR2) ([11]; [125I]-Urotensin II)	further results
N=C(N)NCCC(=O)NC1C(OCc2ccc(Cl)cc2)OC(COCc2ccc(Cl)cc2)C(O)C1OCc1ccc(-c2ccccc2)cc1 (stereo not shown) [compound 434]												A1: inhibition of radioligand binding ([1]; [3H]-Bremazocine, human DOP membranes): − (“−” indicates less than 50% inhibition at 10 μM); A2: inhibition of radioligand binding ([2]; [3H]-Diprenorphine, human KOP membranes): − (“−” indicates less than 50% inhibition at 10 μM); A3: inhibition of radioligand binding ([3]; [125I]-NDP-αMSH, human MC3 membranes): + (“+” indicates greater than 50% inhibition at 10 μM); A4: inhibition of radioligand binding ([4]; [125I]-NDP-αMSH, human MC4 membranes): + (“+” indicates greater than 50% inhibition at 10 μM); A5: inhibition of radioligand binding ([5]; [125I]-NDP-αMSH, human MC5 membranes): + (“+” indicates greater than 50% inhibition at 10 μM); A6: inhibition of radioligand binding ([6]; [125I]-S36057, human MCH1 membranes): + (“+” indicates greater than 50% inhibition at 10 μM); A7: inhibition of radioligand binding ([7]; [3H]-Naloxone, human MOP membranes): − (“−” indicates less than 50% inhibition at 10 μM); A8: inhibition of radioligand binding ([8]; [125I]-Substance P, human NK1 membranes): + (“+” indicates greater than 50% inhibition at 10 μM); A9: inhibition of radioligand binding ([9]; [125I]-PYY, human NPY-Y1 membranes): − (“−” indicates less than 50% inhibition at 10 μM); A10: inhibition of radioligand binding ([10]; [125I]-Nociceptin, human ORL1 membranes): − (“−” indicates less than 50% inhibition at 10 μM); A11: inhibition of radioligand binding ([11]; [125I]-Urotensin II, mouse mUR2 membranes): − (“−” indicates less than 50% inhibition at 10 μM)
N=C(N)NCC(=O)NC1COC(COCc2ccc(Cl)cc2)C(O)C1OCc1ccc(Cl)cc1 (stereo not shown) [compound 539]	− (“−” indicates less than 50% inhibition at 10 μM)	− (“−” indicates less than 50% inhibition at 10 μM)	− (“−” indicates less than 50% inhibition at 10 μM)	+ (“+” indicates greater than 50% inhibition at 10 μM)	− (“−” indicates less than 50% inhibition at 10 μM)	− (“−” indicates less than 50% inhibition at 10 μM)	− (“−” indicates less than 50% inhibition at 10 μM)	+ (“+” indicates greater than 50% inhibition at 10 μM)	− (“−” indicates less than 50% inhibition at 10 μM)	− (“−” indicates less than 50% inhibition at 10 μM)	− (“−” indicates less than 50% inhibition at 10 μM)	
COC[C@H]1OC(OCc2ccc3ccccc3c2)[C@H](NC(=O)CCNC(=N)N)[C@@H](OCc2ccc(-c3ccccc3)cc2)[C@@H]1O (stereo partly shown) [compound 16]												A1 radioligand binding inhibition ([1]; human δ-opioid (DOP) membranes): + (“+” indicates greater than 50% inhibition at 10 μM); A2 radioligand binding inhibition ([2]; human κ-opioid (KOP) membranes): + (“+” indicates greater than 50% inhibition at 10 μM); A3 radioligand binding inhibition ([3]; human melanocortin MC3 membranes): + (“+” indicates greater than 50% inhibition at 10 μM); A4 radioligand binding inhibition ([4]; human melanocortin MC4 membranes): + (“+” indicates greater than 50% inhibition at 10 μM); A5 radioligand binding inhibition ([5]; human melanocortin MC5 membranes): + (“+” indicates greater than 50% inhibition at 10 μM); A6 radioligand binding inhibition ([6]; human MCH1 membranes): + (“+” indicates greater than 50% inhibition at 10 μM); A7 radioligand binding inhibition ([7]; human μ-opioid (MOP) membranes): + (“+” indicates greater than 50% inhibition at 10 μM); A8 radioligand binding inhibition ([8]; human neurokinin NK1 membranes): + (“+” indicates greater than 50% inhibition at 10 μM); A9 radioligand binding inhibition ([9]; human NPY-Y1 membranes): − (“−” indicates less than 50% inhibition at 10 μM); A10 radioligand binding inhibition ([10]; human ORL1 membranes): − (“−” indicates less than 50% inhibition at 10 μM); A11 radioligand binding inhibition ([11]; mouse urotensin mUR2 membranes): − (“−” indicates less than 50% inhibition at 10 μM)
N=C(N)NCCCC(=O)NC1COC(COCc2ccc3ccccc3c2)C(O)C1OCc1ccc(Cl)cc1 (stereo not shown) [compound 541]	− (“−” indicates less than 50% inhibition at 10 μM)	− (“−” indicates less than 50% inhibition at 10 μM)	− (“−” indicates less than 50% inhibition at 10 μM)	− (“−” indicates less than 50% inhibition at 10 μM)	− (“−” indicates less than 50% inhibition at 10 μM)	− (“−” indicates less than 50% inhibition at 10 μM)	− (“−” indicates less than 50% inhibition at 10 μM)	+ (“+” indicates greater than 50% inhibition at 10 μM)	− (“−” indicates less than 50% inhibition at 10 μM)	− (“−” indicates less than 50% inhibition at 10 μM)	− (“−” indicates less than 50% inhibition at 10 μM)	
COCC1OC(OCCc2ccccc2)C(NC(=O)CNC(=N)N)C(OCc2ccc(-c3ccccc3)cc2)C1O (stereo not shown) [compound 549]	− (“−” indicates less than 50% inhibition at 10 μM)	− (“−” indicates less than 50% inhibition at 10 μM)	− (“−” indicates less than 50% inhibition at 10 μM)	− (“−” indicates less than 50% inhibition at 10 μM)	+ (“+” indicates greater than 50% inhibition at 10 μM)	− (“−” indicates less than 50% inhibition at 10 μM)	− (“−” indicates less than 50% inhibition at 10 μM)		− (“−” indicates less than 50% inhibition at 10 μM)	− (“−” indicates less than 50% inhibition at 10 μM)	− (“−” indicates less than 50% inhibition at 10 μM)	A8: inhibition of radioligand binding, human neurokinin (NK1) ([8]; [125I]-Substance P, 10 µM): − (“−” indicates less than 50% inhibition at 10 μM)
